Assay results as given in patent publication US20210086176A1, “Analyte Detection method” (The Board of Trustees of the Leland Stanford Junior …, priority 2017, published 2021).

What was measured:
[1] = inhalation; cited from earlier work
[2] = in vivo; cited from earlier work
[3] = mouse, in vivo, po, 10 mg/kg

CC#N [acetonitrile]
acetonitrile in inhaled air that can induce toxic effects [1]: 100 ppm

CCC(=O)C(CC(C)N(C)C)(c1ccccc1)c1ccccc1 (stereo not drawn) [methadone]
minimally effective plasma analgesic concentration (MEAC) [2]: 60 ng/mL

Cc1nccn1CC1CCc2c(c3ccccc3n2C)C1=O (stereo not drawn) [ondansetron]
slope of trend line, plasma (y) versus whole blood (x) ondansetron concentration [3]: 0.973
